# Where two headings read alike, the source gives them in different places.
# What was measured:
# Experiment in all cases: Cellular cytotoxicity of compounds of Formula I, Example 3.1
# Type in all cases: cell-based
# [1] = system: Human Pancreatic cell line BxPC-3; conditions: five nights, CellTiter-Glo
# Method: (§1) Compounds were tested on one or more of Human T-cell leukemia cell line Jurkat (ATCC: TIB-152); Human breast cancer cell lines HCC1954 (ATCC: CRL-2338) and JIMT-1 (DSMZ: ACC 589); Human Pancreatic cell line BxPC-3 (ATCC: CRL.1687), Human ovarian adenocarcinoma cell line SK-OV-3 (ATCC: HTB-77) and Human gastric carcinoma cell line NCI-N87 (ATCC: CRL. 5822); to assess their cytotoxicity.
# (§2) Briefly, cells were obtained from commercial sources and cultured as described in the product sheet provided. Cells were removed from their culture vessels and the resulting cell suspension was counted using a ViCell (Beckman Coulter), then seeded at 25,000 cells/mL (2,500 cells/well) in Costar 3904 black walled, flat bottomed 96-well plates (cells were seeded in the inner 60 wells of 96-well TC plates, and outer edge wells filled with water). Adherent cell lines were incubated for one night at 37° C./5% CO2 atmosphere to allow the cells to attach to the microtiter plate surface, while suspension (Jurkat) cells were plated immediately before use. Cytotoxins were dissolved and serially diluted in dimethyl sulfoxide and then the solutions were added to complete growth medium at five-times the desired maximum final concentration. The cytotoxins were then titrated in growth medium, normally 1:3, over eight steps. A control with no test article present (growth medium alone) was included on each microtiter plate in sextuplicate. The prepared toxin titrations were added (25 μL/well) in triplicate to each cell line assayed. The cells and titrations were incubated at 37° C./5% CO2 for three nights (Jurkat) and five nights (all other cell lines). After the incubation, cell viability was measured using CellTiter-Glo® by adding 30 μL of prepared CellTiter-Glo® reagent to each assay well. The mixtures were incubated for at least twenty minutes in the dark prior to measuring emitted luminescence using a microplate luminometer (500 ms integration time). The collected relative luminescence units (RLU) were converted to % cytotoxicity using the growth medium alone control mentioned above (% Cytotoxicity=1-[well RLU/average medium alone control RLU]×100%).
# [2] = system: Human T-cell leukemia cell line Jurkat; conditions: Homo sapiens, Jurkat, read-out: EC50 (nM) Jurkat
# Method: as §1, §2
# [3] = system: Human gastric carcinoma cell line NCI-N87; conditions: five nights, CellTiter-Glo
# Method: as §1, §2
Compound,EC50 [1],"EC50 ([2]; three nights, CellTiter-Glo)",EC50 [3],EC50 [2]
"CC[C@H](C)[C@@H]([C@@H](CC(=O)N1CCC[C@H]1[C@H](OC)[C@@H](C)C(=O)NS(=O)(=O)Cc1ccc(CNC(=O)C(F)(F)F)cc1)OC)N(C)C(=O)[C@@H](NC(=O)[C@H](C(C)C)N(C)C)C(C)C [Compound 25, (S)-2-((S)-2-(Dimethylamino)-3-methylbutanamido)-N-((3R,4S,5S)-3-methoxy-1-((S)-2-((1R,2R)-1-methoxy-2-methyl-3-oxo-3-(((4-((2,2,2-trifluoroacetamido)methyl)phenyl)methyl)sulfonamido)propyl)pyrrolidin-1-yl)-5-methyl-1-oxoheptan-4-yl)-N,3-dimethylbutanamide]",> 100 nM,34.3 nM,> 100 nM,–
"CC[C@H](C)[C@@H]([C@@H](CC(=O)N1CCC[C@H]1[C@H](OC)[C@@H](C)C(=O)NS(=O)(=O)c1ccc(N)cc1)OC)N(C)C(=O)[C@@H](NC(=O)[C@@H](NC)C(C)C)C(C)C [Compound 20, (S)-N-((3R,4S,5S)-1-((S)-2-((1R,2R)-3-((4-Aminophenyl)sulfonamido)-1-methoxy-2-methyl-3-oxopropyl)pyrrolidin-1-yl)-3-methoxy-5-methyl-1-oxoheptan-4-yl)-N,3-dimethyl-2-((S)-3-methyl-2-(methylamino)butanamido)butanamide]",> 300 nM,> 100 nM,> 300 nM,–
"CC[C@H](C)[C@@H]([C@@H](CC(=O)N1CCC[C@H]1[C@H](OC)[C@@H](C)C(=O)N[C@@H](Cc1ccccc1)C(=O)NS(=O)(=O)Cc1ccc(CNC(=O)C(F)(F)F)cc1)OC)N(C)C(=O)[C@@H](NC(=O)[C@H](C(C)C)N(C)C)C(C)C [Compound 27, (S)-2-((S)-2-(Dimethylamino)-3-methylbutanamido)-N-((3R,4S,5S)-3-methoxy-1-((S)-2-((1R,2R)-1-methoxy-2-methyl-3-oxo-3-(((S)-1-oxo-3-phenyl-1-(((4-((2,2,2-trifluoroacetamido)methyl)phenyl)methyl)sulfonamido)propan-2-yl)amino)propyl)pyrrolidin-1-yl)-5-methyl-1-oxoheptan-4-yl)-N,3-dimethylbutanamide]",19 nM,–,17.4 nM,24.2 nM
"CC[C@H](C)[C@@H]([C@@H](CC(=O)N1CCC[C@H]1[C@H](OC)[C@@H](C)C(=O)NS(=O)(=O)c1ccc(N)cc1)OC)N(C)C(=O)[C@@H](NC(=O)[C@@H](NC)C(C)(C)c1ccccc1)C(C)C [Compound 19, (S)-N-((3R,4S,5S)-1-((S)-2-((1R,2R)-3-((4-Aminophenyl)sulfonamido)-1-methoxy-2-methyl-3-oxopropyl)pyrrolidin-1-yl)-3-methoxy-5-methyl-1-oxoheptan-4-yl)-N,3-dimethyl-2-((S)-3-methyl-2-(methylamino)-3-phenylbutanamido)butanamide]",10.2 nM,2.2 nM,12.8 nM,–

# Source: patent US10450378B2, “Cytotoxic and anti-mitotic compounds, and methods of using the same” (priority 2014, dated 2019)
